22 compounds from patent US20090286791A1, “Amide Compounds” (TAKEDA PHARMACEUTICAL COMPANY LIMITED, priority 2001, published 2009) can be followed below.

A value given as a limit tells only on which side of the number the result lay.

The target of the test is T1, human DGAT1 (Homo sapiens, UniProt O75907).
T1 construct: made in house; host or cells: Sf9 insect cells (baculovirus BAC-DGAT1, pFASTBAC1); microsome fraction
T1 sequence (O75907 1-488): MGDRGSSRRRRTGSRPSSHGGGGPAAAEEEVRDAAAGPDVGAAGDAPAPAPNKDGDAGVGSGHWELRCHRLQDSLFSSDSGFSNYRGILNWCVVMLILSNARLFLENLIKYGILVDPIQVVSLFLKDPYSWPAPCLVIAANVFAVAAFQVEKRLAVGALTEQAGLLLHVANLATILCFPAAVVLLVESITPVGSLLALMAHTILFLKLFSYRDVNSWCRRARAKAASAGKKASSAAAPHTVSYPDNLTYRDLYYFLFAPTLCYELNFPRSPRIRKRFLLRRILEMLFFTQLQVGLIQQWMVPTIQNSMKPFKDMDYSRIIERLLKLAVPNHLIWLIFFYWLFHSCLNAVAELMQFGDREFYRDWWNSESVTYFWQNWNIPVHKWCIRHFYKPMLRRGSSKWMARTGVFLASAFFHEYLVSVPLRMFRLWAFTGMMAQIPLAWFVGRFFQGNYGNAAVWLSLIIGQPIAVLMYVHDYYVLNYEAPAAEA
As to the kind of experiment: DGAT inhibitory activity: [14C]-triglyceride synthesis with DGAT1 high expression Sf9 microsome. It counts as biochemical. Particulars: 25 μM dioleoylglycerol, 25 μM [14C]-Oleoyl-CoA, 32° C., 20 min, read-out: hDGAT1 IC50. Here is the method:
The primer nucleotide sequence is shown below.
The PCR reaction was conducted using a KOD-plus kit (TOYOBO). The obtained PCR product was electrophoresed on agarose gel (1%), the DNA fragment amplified by PCR was recovered from the gel, and then digested with restriction enzymes EcoRI and SpeI. […] Furthermore, using BAC-TO-BAC Baculovirus Expression System (Invitrogen), recombinant baculovirus BAC-DGAT1 was prepared.
SF9 cells were sown at 1×10^6 cells/ml on Sf-900II SFM medium (1 L, Invitrogen) containing 10% fetal calf serum (Trace), 50 mg/L gentamicin (Invitrogen) and 0.1% Pluronic F-68 (Invitrogen), and shaking culture was performed using a 2 L volume Erlenmeyer flask at 27° C., 100 rpm. After culturing for 24 hrs, recombinant baculovirus BAC-DGAT1 (6.7 mL) was added, and the mixture was further cultured for 3 days. The culture medium was centrifuged at 2,000 rpm for 5 min to give virus-infected cells. The infected cells were washed with a phosphate buffered saline (Invitrogen), centrifuged under the same conditions, and the cells were preserved at −80° C. The cryopreserved cells were thawed in ice, suspended in buffer A (50 mM Tris buffer (30 mL, pH 7.4) containing 20% glycerol, 0.15 M NaCl) supplemented with Complete Protease Inhibitor (Boehringer), and ruptured 3 times with a Polytron homogenizer (Kinematica) at 20,000 rpm for 30 sec. The Sf9 microsome fractions were obtained by a conventional method and cryopreserved at −80° C. as a DGAT1 high expression Sf9 microsome.
As a DGAT1 reaction buffer, a solution having a composition of 100 mM Tris-HCl (pH 7.5), 250 mM sucrose, 150 mM MgCl2, 0.01% bovine serum albumin (BSA) was used. […] A mixture of 300 μL of chloroform:methanol (=1:2) was added to the reaction mixture to quench the reaction. The reaction mixture was sufficiently mixed and distilled water (200 μL) was added to partition the mixture between a chloroform layer (lower layer) and an aqueous layer (upper layer). […] The developed TLC plate was dried, contacted with a BAS imaging plate (manufactured by FUJIFIIM) and measured with BAS2500 (manufactured by FUJIFILM) 16 hr later to numerically show the amount of [^14C]-triglyceride (TG amount) produced during the reaction. The inhibitory rate was calculated by the following formula:
Inhibitory rate (%)=(1−(TG amount with addition of test compound−blank TG amount)/(control TG amount−blank TG amount))×100
The count of the triglyceride produced in the solution reacted without addition of the compound was used as a “control TG amount”, and the count of the triglyceride produced in the solution reacted without addition of the test compound and DGAT1 high expression Sf9 microsome was used as a “blank TG amount”.
With `CN(C)c1nn(-c2ccccc2)cc1C(=O)NCCNC(=O)c1ccc(OCC(F)(F)F)nc1` [Example A58, N-(2-(3-(dimethylamino)-1-phenyl-1H-pyrazole-4-carboxamido)ethyl)-6-(2,2,2-trifluoroethoxy) nicotinamide], the IC50 is 1000 to 10000 nM. Next, `O=C(NCCNC(=O)c1cn(-c2ccccc2)nc1C(F)(F)F)c1ccc(-n2cccn2)nc1` [Example A12, N-(2-(1-phenyl-3-(trifluoromethyl)-1H-pyrazole-4-carboxamido)ethyl)-6-(1H-pyrazol-1-yl) nicotinamide]: less than 100 nM. Turning to `COc1nn(-c2ccccc2)cc1C(=O)NCCNC(=O)c1ccc(OCC(F)(F)F)nc1` [Example A55, N-(2-(3-methoxy-1-phenyl-1H-pyrazole-4-carboxamido)ethyl)-6-(2,2,2-trifluoroethoxy) nicotinamide], the IC50 lay in the range of 100 to 1000 nM. As to `CCOc1ccc(C(=O)NCCNC(=O)c2nn(-c3ccccc3)nc2C)cc1` [Example D6, N-(2-(4-ethoxybenzamido)ethyl)-5-methyl-2-phenyl-1H-1,2,3-triazole-4-carboxamide], the IC50 lay within 1000 to 10000 nM. As to `O=C(NCCNC(=O)c1cn(-c2ccccc2)c2ccccc12)c1ccc(OCC(F)(F)F)nc1` [Example A53, 1-phenyl-N-(2-(6-(2,2,2-trifluoroethoxy)nicotinamido)ethyl)-1H-indole-3-carboxamide], the IC50 was less than 100 nM. Consider `O=C(NCCNC(=O)c1cn(-c2ccccc2)nc1C(F)(F)F)c1ccc(OCCC(F)(F)F)nc1` [Example A42, N-(2-(1-phenyl-3-(trifluoromethyl)-1H-pyrazole-4-carboxamido)ethyl)-6-(3,3,3-trifluoropropoxy)nicotinamide], for which the IC50 is less than 100 nM. With `CCOc1ccc(C(=O)N2CCCC2CNC(=O)c2cn(-c3ccccc3)nc2C(F)(F)F)cc1` (stereo not shown) [Example C11, N-((1-(4-ethoxybenzoyl)pyrrolidin-2-yl)methyl)-1-phenyl-3-(trifluoromethyl)-1H-pyrazole-4-carboxamide] the figure was 1000 to 10000 nM; with `CCOc1ccc(C(=O)NC[C@@H](NC(=O)c2cn(-c3ccccc3)nc2C(F)(F)F)C(=O)OC)cc1` [C15], 100 to 1000 nM. As for `CN(C)CCNc1ccc(C(=O)NCCNC(=O)c2cn(-c3ccccc3)nc2C(F)(F)F)cn1` [Example A11, 6-(2-(dimethyl-amino)ethylamino)-N-(2-(1-phenyl-3-(trifluoromethyl)-1H-pyrazole-4-carboxamido)ethyl) nicotinamide], the IC50 was in the range of 1000 to 10000 nM. For `CCOc1ccc(C(=O)NCCNC(=O)c2cn(-c3ccc4[nH]ccc4c3)nc2C(F)(F)F)cc1` [Example B1, N-(2-(4-Ethoxybenzamido)ethyl)-1-(1H-indol-5-yl)-3-(trifluoromethyl)-1H-pyrazole-4-carboxamide], the IC50 is less than 100 nM.

For `O=C(NCCNC(=O)c1cn(C(=O)c2ccccc2)c2ccccc12)c1ccc(OCC(F)(F)F)nc1` [Example A82, 1-benzoyl-N-(2-(6-(2,2,2-trifluoroethoxy)nicotinamido)ethyl)-1H-indole-3-carboxamide], the IC50 was less than 100 nM.

With `CCCc1cc(CCC)c(C(=O)NCCNC(=O)c2cn(-c3ccccc3)nc2C(F)(F)F)cn1` [Example A76, N-(2-(1-phenyl-3-(trifluoro-methyl)-1H-pyrazole-4-carboxamido)ethyl)-4,6-di-propylnicotinamide], the IC50 fell in the range of 100 to 1000 nM. Consider `O=C(NCCNC(=O)c1cn(-c2ccccc2)nc1C(F)(F)F)c1ccc(S(=O)(=O)c2ccccc2)nc1` [Example A86, N-(2-(1-Phenyl-3-(trifluoromethyl)-1H-pyrazole-4-carboxamido)ethyl)-6-(phenylsulfonyl)nicotinamide], for which the IC50 is 100 to 1000 nM.

Turning to `CN(C)c1ccc(C(=O)NCCNC(=O)c2cn(-c3ccccc3)nc2C(F)(F)F)cn1` [Example A15, 6-(dimethylamino)-N-(2-(1-phenyl-3-(trifluoromethyl)-1H-pyrazole-4-carboxamido)ethyl)nicotinamide], the IC50 was in the range of 100 to 1000 nM.

Consider `CCOc1ccc(C(=O)NCCNC(=O)c2cc(-c3ccccc3)cc(-c3ccccc3)n2)cc1` [Example D1, N-(2-(4-Ethoxybenzamido)ethyl)-4,6-diphenylpicolinamide], for which the IC50 fell in the range of 1000 to 10000 nM. `O=C(NCCNC(=O)c1cn(-c2ccccc2)nc1C(F)(F)F)c1ccc(-c2ncon2)nc1` [Example A96, 6-(1,2,4-Oxadiazol-3-yl)-N-(2-(1-phenyl-3-(trifluoromethyl)-1H-pyrazole-4-carboxamido)ethyl)nicotinamide]: the IC50 lay within 100 to 1000 nM.

Consider `CCCCc1ccc(C(=O)NCCNC(=O)c2cn(-c3ccccc3)nc2C(F)(F)F)nc1` [Example A24, 5-butyl-N-(2-(1-phenyl-3-(trifluoromethyl)-1H-pyrazole-4-carboxamido)ethyl)picolinamide], for which the IC50 fell in the range of 100 to 1000 nM. Next, `CCOc1ccc(C(=O)NCCNC(=O)c2cn(-c3cccc(OCC)n3)nc2C(F)(F)F)cc1` [B6, N-(2-(4-ethoxybenzamido)ethyl)-1-(6-ethoxypyridin-2-yl)-3-(trifluorometh-yl)-1H-pyrazole-4-carboxamide]: 100 to 1000 nM; `O=C(NCCNC(=O)c1cn(-c2ccccc2)nc1C(F)(F)F)c1ccc(-c2noc(C(F)(F)F)n2)nc1` [Example A98, N-(2-(1-Phenyl-3-(trifluoromethyl)-1H-pyrazole-4-carboxamido)ethyl)-6-(5-(trifluoromethyl)-1,2,4-oxadiazol-3-yl)nicotinamide]: less than 100 nM; `N#Cc1cc(C(=O)NCCNC(=O)c2cn(-c3ccccc3)nc2C(F)(F)F)cnc1OCC(F)(F)F` [Example A87, 5-Cyano-N-(2-(1-phenyl-3-(trifluoromethyl)-1H-pyrazole-4-carboxamido)ethyl)-6-(2,2,2-trifluoroethoxy)nicotinamide]: 100 to 1000 nM.

In the case of `CC(C)c1nc(-c2ccc(C(=O)NCCNC(=O)c3cn(-c4ccccc4)nc3C(F)(F)F)cn2)no1` [Example A103, 6-(5-isopropyl-1,2,4-oxadiazol-3-yl)-N-(2-(1-phenyl-3-(trifluoromethyl)-1H-pyrazole-4-carboxamido)ethyl)nicotinamide], the IC50 was less than 100 nM. In the case of `CC(=O)Nc1ccc(C(=O)NCCNC(=O)c2cn(-c3ccccc3)nc2C(F)(F)F)cn1` [Example A99, 6-Acetamido-N-(2-(1-phenyl-3-(trifluoromethyl)-1H-pyrazole-4-carboxamido)ethyl)nicotinamide], the IC50 lay in the range of 1000 to 10000 nM.

What is called IC50 is the point on the concentration scale where inhibition reaches its midpoint.
